The results in this text go back to patent US7608750B2, “Nonhuman model animal unresponsive to immunopotentiating synthetic compound” (Japan Science and Technology Agency, priority 2001, dated 2009).

SMILES strings stand for the structures.

For test [1], the system named is peritoneal macrophages derived from TLR7 knockout mice (TLR7KO). Briefly: Cytokine production by peritoneal macrophages (ELISA), TLR7 knockout. To be noted: 5×10^4 cells, presence or absence of 30 U/ml IFN-γ, 24 h culture. In kind it is cell-based, mouse. The procedure:
2 ml of 4% thioglycollic acid medium (DIFCO) were injected into the intraperitoneals of the wild-type mice, TLR7 knockout mice (TLR7KO), MyD88 knockout mice (MyD88KO) and TLR9 knockout mice (TLR9KO), respectively, three days later, peritoneal exudate cells were isolated from intraperitoneal of each mouse, these cells were cultured in PRMI 1640 medium (GIBCO) added with 10% fatal bovine serum (GIBCO) at 37° C. for two hours, nonadherent cells were […] by washing with Hank's buffered salt solution (HBBS; GIBCO) at iced temperature, and the adherent cells were used as peritoneal macrophages in following experiment. Total RNA (10 μg) obtained from macrophages derived from the wild-type mice (+/Y) and TLR7 knockout mouse (TLR7KO) was electrophoresed, transferred onto a nylon membrane, and hybridized with a part of TLR7 DNA, and this membrane was rehybridized with β-actin probe. It was examined by the Northern blotting. From the results shown in FIG. 3, the expression of TLR7mRNA could not be found in TLR7 knockout mice.
In addition, the measurement of cytokine generated from peritoneal macrophages was executed as follows; […] peritoneal macrophages of 2×10^5 well or 5×10^4 well were cultured in 96-well plate respectively, and after stimulated with the above-mentioned reagents for 24 h, concentration of TNF-α, IL-12p40, IL-6 and/or IFN-α were measured by ELISA according to the manual.
Next, the peritoneal macrophages (5×10^4 cells) derived from TLR7 knockout mice (TLR7KO), TLR9 knockout mice (TLR9KO) and wild-type mice were stimulated with CpGDNA 1668 (phosphorothioate 1688). D19, AAC30, natural 1688 (phosphodiester 1688). genomic DNA derived from Escherichia coli, or genomic DNA derived from Micrococcus deikticus at of a predetermined concentration in the presence (+) or absence (−) of 30 U/ml of IPN-γ, and the concentration of IL-12p40 produced by production of peritoneal macrophages contained in cultured supernatant was measured by ELISA after 24 h of culture. The results are shown in FIG. 6 (in the figure, marks of * show detection limits and below). […]

Test [2] concerns TLR7 knockout mice. Put plainly: Serum cytokines after intraperitoneal R-848, TLR7 knockout mice. To be noted: 50 nmol intraperitoneally, ELISA. In kind it is in vivo, mouse. The procedure:
(§1) It was examined in vivo whether TLR7 was involved in a response to R-848. The wild-type mice, MyD88 knockout mice or TLR7 knockout mice were injected intraperitoneally with 50 nmol of R-848, the sera were harvested after a predetermined period of time, and the concentration of IFN-α, TNF-α and IL12p40 in sera was determined by ELISA. […] On the contrary, the increment of these cytokines was not observed in TLR7 knockout mice.

Test [3] relates to splenic cells derived from wild-type mice. Put plainly: Splenic cell proliferation ([3H] thymidine incorporation), wild-type. In kind it is cell-based, mouse. To be noted: 5×10^4 cells, cultured 48 h. The protocol: (§2) As activated phenotypes were proliferated and expressed by stimulating B-lymphocytes with imidazoquinoline group compounds, the proliferation of splenic cells was examined (Cell. Immunol. 203, 55-62, 2000; J. Immunol. 165, 5552-5557, 2000). Splenic cells (5×10^4 cells) derived from TLR7 knockout mice (TLR7KO) and wild-type mice were stimulated with R-848 and CpGDNA at a predetermined concentration, cultured for 48 h (cultured by adding [^3H] thymidine for last eight hours), and measured the level of thymidine incorporation using a β scintillation counter. A mean value+/−S.D., obtained from representative experiment among triplicate experiments is shown.

For test [4], the system named is wild-type mice. Briefly: Serum cytokines after intraperitoneal R-848, wild-type mice. In kind it is in vivo, mouse. To be noted: 50 nmol intraperitoneally, ELISA. The procedure: as §1
The subject of test [5] is splenic cells derived from TLR7 knockout mice (TLR7KO). Briefly: Splenic cell proliferation ([3H] thymidine incorporation), TLR7 knockout. In kind it is cell-based, mouse. The note with it: 5×10^4 cells, cultured 48 h. The procedure:
as §2

Regarding `CCOCc1nc2c(N)nc3ccccc3c2n1CC(C)(C)O` [R-848, resiquimod], in test [1], the “production of IL-6 by peritoneal macrophages” value is “not confirmed”, the “production of IL-12p40 by peritoneal macrophages” value is “not confirmed” and the “production of TNF-α by peritoneal macrophages” value is given as “not confirmed”. Besides, in test [2], the “increment of IFN-α in sera” value was “not observed”, the “increment of IL12p40 in sera” value is on record as “not observed” and the “increment of TNF-α in sera” value was “not observed”. Besides, in test [3], the “proliferation of splenic cells ([3H] thymidine incorporation)” value is reported as “showed proliferation depending on concentration”. For the same compound, in test [4], the “concentration of IFN-α in sera” value was “increased significantly”, the “concentration of IL12p40 in sera” value is listed as “increased significantly” and the “concentration of TNF-α in sera” value was “increased significantly”. Besides, the “proliferation of splenic cells ([3H] thymidine incorporation)” value in test [5] is “did not show proliferation”.
